From the NIST ThermoML archive (doi:10.1021/je600518s)

Conditions: Liquid, Ebulliometric method (Recirculating still)

COC(C)=O [methyl ethanoate]
Conditions | vapor or sublimation pressure [kPa]
304 K | 37.14
306 K | 40.4
308 K | 43.89
310 K | 47.62
312 K | 51.6
314 K | 55.85
316 K | 60.38
318 K | 65.21
320 K | 70.34
322 K | 75.79
324 K | 81.58
326 K | 87.72
328 K | 94.23
330 K | 101.12
332 K | 108.41
334 K | 116.11
336 K | 124.25
338 K | 132.83
